Experimental data reported in patent publication US20160193240A1, “Ulmoside-A: Useful For Prevention Or Cure Of Metabolic Diseases” (COUNCIL OF SCIENTIFIC & INDUSTRIAL RESEARCH, priority 2013, published 2016).

How the values were obtained:
[1] = test system: db/db mice; experiment: Random (fed) blood glucose in db/db mice; type: in vivo, mouse; details: 5 mg/kg ULMA for 15 d
Description: 8 week old db/db mice were treated with vehicle (V; 1% gum acacia) or with 5 mg/kg ULMA for 15 days and the fed blood glucose was measured by a glucometer (Gluco Dr. Super sensor; that is capable of measuring 10-900 mg/dl glucose) ** p<0.01, ***p<0.005, n=6.
8 week old female db/db mice (n=6) weighing 40-50 g were divided into 2 groups and maintained as above. Control groups received vehicle (1% gum acacia) and ULMA groups received 5 mg/kg bw ULMA in 1% gum acacia for […]. Body weight and blood glucose were measured at the beginning and end of the studies.

[2] = target: T1, AdipoR2 (Homo sapiens, UniProt Q86V24); experiment: Radio-ligand saturation binding assay with 125I-ULMA, CHO cells transfected with AdipoR2
T1 construct: expressed in transfected cells; host or cells: Chinese Hamster Ovary cells (ECACC 85050302), transient transfection with Lipofectamine LTX
T1 sequence (Q86V24 1-386): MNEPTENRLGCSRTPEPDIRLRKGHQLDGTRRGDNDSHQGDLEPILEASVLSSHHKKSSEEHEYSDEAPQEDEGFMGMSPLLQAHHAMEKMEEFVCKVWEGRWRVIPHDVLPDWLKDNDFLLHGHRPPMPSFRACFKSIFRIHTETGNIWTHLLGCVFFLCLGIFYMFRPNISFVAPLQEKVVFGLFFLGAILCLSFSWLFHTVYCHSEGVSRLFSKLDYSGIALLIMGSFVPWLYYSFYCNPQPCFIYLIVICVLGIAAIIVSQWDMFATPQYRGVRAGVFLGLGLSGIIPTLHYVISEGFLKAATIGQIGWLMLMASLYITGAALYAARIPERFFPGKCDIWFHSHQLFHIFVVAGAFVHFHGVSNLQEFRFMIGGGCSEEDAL
Description: D. CHO cells transfected with empty vector or AdipoR1 or R2 expression vectors were incubated with various concentrations of ^125I-ULMA for 2 h at 4° C. Following washes, cells were lysed and count per minute was analyzed in a gamma counter. 200 fold molar excess of unlabeled ULMA was used for each concentration of radiolabeled ULMA for determining nonspecific activity. Count per minutes were normalized with total cellular protein content followed by further normalization with non-specific activity and plotted. Data is mean±SEM from three experiments performed in triplicates.
Further validation of AdipoR-ULMA interaction and its quantitation was done using a radio-ligand saturation binding assay using ^125I-ULMA. ULMA was first radiolabeled using chloramines-T method. 10 μl of ^125I (20 MBq; BARC, Mumbai, India) was added to 100 μg GTDF in 5% acetic acid/methanol, then chloramine-T (Sigma, 4 μg in MilliQ H2O) was added, and the mixture was allowed to react at room temperature (24° C.) for 5 min. […] was used for protein estimation using standard Bradford assay and rest of the lysate was used for measuring radioactivity in a gamma-counter (Cole Palmer). The count per minute was normalized with protein concentration and was further normalized with non specific binding, which was determined for every concentration of ^125I-ULMA, using 200 fold molar excess of unlabeled ULMA.

[3] = test system: C2C12 myotubes; experiment: Mitochondrial DNA content by QRT-PCR in C2C12 myotubes; type: cell-based, mouse; details: 10 nM, 72 hours
Description: D. ULMA increases mitochondrial DNA content. C2C12 myotubes in 6 well plates were treated with vehicle (0.1% vol/vol DMSO) or 10 nM ULMA (in DMSO) for 72 h. Following which, total cellular DNA was isolated from these cells by standard procedure (using a genomic DNA isolation kit; Macherey Nagel; according to manufacturer's instructions) and the mitochondrial DNA content was measured by QRT-PCR based measurement of mitochondrial coxII (Mit-CoxII) and cytochrome b (Cytb) and normalized with genomic glycerol three phosphate dehydrogenase DNA level. Data represent mean±SEM from three independent experiments performed in triplicates. *p<0.05 as determined by two tailed unpaired student's t-test.
Adiponectin is also known to activate PGC-1α by indirectly deacetylating this protein through activation of sirt1 (M. Iwabu, T. Yamauchi, M. Okada-Iwabu, K. Sato, T. Nakagawa, M. Funata, M. Yamaguchi, S. Namiki, R. Nakayama, M. Tabata, H. Ogata, N. Kubota, I. Takamoto, Y. K. Hayashi, N. Yamauchi, H. Waki, M. Fukayama, I. Nishino, K. Tokuyama, K. Ueki, Y. Oike, S. Ishii, K. Hirose, T. Shimizu, K. Touhara, T. Kadowaki. Nature; 464(7293): 1313-1319. 2010), therefore PGC-1α acetylation status following ULMA treatment was checked in C2C12 cells. C2C12 myotubes plated in 10 cm dish were treated with vehicle (DMSO) or 10 nM ULMA in DMSO for 6 hours. […]

## O=C1c2c(cc(O)c([C@@H]3O[C@H](CO)[C@@H](O)[C@H](O)[C@H]3O)c2O)O[C@@H](c2ccc(O)c(O)c2)[C@@H]1O [ULMA, (2S,3S)-(+)-3′,4′,5,7-tetrahydroxydihydroflavonol-6-C-β-D-glucopyranoside]
[1]
  fed blood glucose in comparison to vehicle treated control mice: significantly reduced fed blood glucose
[2]
  maximum binding (BMAX): 3950 fmol/mg of protein
[2]; 2 hours, ice cold, read-out: dissociation constant (Kd)
  Kd: 326 nM
[3]
  Cytochrome B (Cytb) DNA level: enhanced
  mitochondrial cytochrome oxidase II (COX-II) DNA level: enhanced
